{"source": "patent US7906110B2", "about": "“Rapid preparation of stem cell matrices for use in tissue and organ treatment and repair” (University of Pittsburgh—of the Commonwealth System of …, priority 2001, dated 2011)", "system": "spontaneous contractile activity of MDSC/SIS preparations", "assay": "Pharmacological evaluation on spontaneous contractile activity of MDSC/SIS", "type": "cell-based", "settings": "for effect on spontaneous contractile activity in MDSC/SIS specimens: added to bath: carbachol 10 and 20 μM, KCI 7%, 1 M, EGTA 200 μM in Ca++-free Krebs", "experimental": "Twenty five preparations of MDSC/SIS and twenty five control preparations of SIS only were incubated at 37° C. for 1, 4, or 8 weeks. The specimens were then mounted in a thermally controlled bath of 5 ml at 37° C. in Krebs solution (mmol/L: NaCl, 113; KCI, 4.7; CaCl2,1.25; MgSO4,1.2; NaHCO3, 25; KH2PO4, 1.2 and glucose, 11.5) with a mixture of 95% 02 and 5% C02. The frequency and amplitude of isometric contractions were measured with strain gauge transducers coupled with a TBM4 strain gauge amplifier and recorded on a computer using a data acquisition program (Windaq, DATAQ Instruments Inc. Akron, Ohio). After 60 minutes of equilibration, electrical field stimuli (10 Hz, 150 volt, 0.5 ms, 60 sec) were applied in the bath. Pharmacological evaluations were performed with succinylcholine (S-Chol), (4, 10 and 20 μM); carbachol (10 and 20 μM); KCI, (7%, 1 M); Ca^++-free Krebs solution with EGTA (200 μM); or distilled water, were each added to the bath sequentially at 30 minute intervals. The frequency, amplitude, and pattern of contraction of the specimens were compared among the different groups.", "data": [{"molecule": "O=C(O)CN(CCOCCOCCN(CC(=O)O)CC(=O)O)CC(=O)O", "note": "[EGTA]", "values": [{"measurement": "effect on spontaneous contractile activity in MDSC/SIS specimens", "value": "blocked"}]}, {"molecule": "[Cl-].[K+]", "note": "[KCI]", "values": [{"measurement": "effect on spontaneous contractile activity in MDSC/SIS specimens", "value": "did not alter"}]}, {"molecule": "C[N+](C)(C)CCOC(N)=O", "note": "[carbachol]", "values": [{"measurement": "effect on spontaneous contractile activity in MDSC/SIS specimens", "value": "did not alter"}]}, {"molecule": "C[N+](C)(C)CCOC(=O)CCC(=O)OCC[N+](C)(C)C", "note": "[succinylcholine]", "values": [{"measurement": "effect on frequency, amplitude or pattern of spontaneous activity", "setting": "4 μM, any of the preparations", "value": "did not alter"}, {"measurement": "frequency and amplitude of spontaneous contractile activity decreased", "setting": "4-week MDSC/SIS, 10 μM", "value": "2 of 5"}, {"measurement": "frequency and amplitude of spontaneous contractile activity decreased", "setting": "4-week MDSC/SIS, 20 μM", "value": "5 of 5"}, {"measurement": "spontaneous contractile activity blocked", "setting": "4-week MDSC/SIS, 20 μM", "value": "2 of 5"}, {"measurement": "frequency and amplitude of spontaneous contractile activity decreased", "setting": "8-week MDSC/SIS, 10 μM", "value": "8 of 8"}, {"measurement": "effect on frequency and amplitude of spontaneous contractile activity", "setting": "8-week MDSC/SIS, 20 μM", "value": "decreased"}, {"measurement": "spontaneous contractile activity blocked", "setting": "8-week MDSC/SIS, 20 μM", "value": "5 of 8"}, {"measurement": "reversibility of suppressant effects", "setting": "after washout of the drug", "value": "reversible"}]}]}
